For 22 compounds, IC50 results are on record in BindingDB's records for doi:10.1021/jm070299x (Bristol Myers Squibb, 2007).

Each structure is given as a SMILES string. pIC50: −log10 of the molar value.

The target in this experiment is Inosine-5'-monophosphate dehydrogenase 2 (Homo sapiens, UniProt P12268). In words: IMPDH2 Enzyme Inhibition and Human T-Lymphoblast (CEM) Proliferation Inhibition Assays. The following applies: pH 8, 25 °C. Here is the method:
Inhibition assays were performed using recombinant human IMPDH type 2 and varying concentrations of inhibitor. The production of NADH was monitored by following changes in absorbance at 340 nm. […] The in vivo activities of compounds were also evaluated the inhibition of T-cell proliferation in CEM lymphoblast cells. The EC50/IC50 values were calculated using a four-parameter logistic plot.

Take `CC(C)(NC(=O)c1cc2[nH]c3ccccc3c(=O)c2cc1F)c1ccc(S(C)(=O)=O)cc1` [2-fluoro-N-[2-(4-methanesulfonylphenyl)propan-2-yl]-9-oxo-9,10-dihydroacridine-3-carboxamide]: the pIC50 (as a rule, −log10 of the IC50, conventionally taken in molar units) is 6.32.
The same measure, in the same setting: the result for `CC(C)(NC(=O)c1ccc2c(=O)c3ccccc3[nH]c2c1)c1cccnc1` [9-oxo-N-[2-(pyridin-3-yl)propan-2-yl]-9,10-dihydroacridine-3-carboxamide] reads 5.66; that for `CC(C)(NC(=O)c1cc2[nH]c3ccccc3c(=O)c2cc1F)c1ccccn1` [2-fluoro-9-oxo-N-[2-(pyridin-2-yl)propan-2-yl]-9,10-dihydroacridine-3-carboxamide], 6.00; that for `CN(C)c1ccc(C(C)(C)NC(=O)c2cc3[nH]c4ccccc4c(=O)c3cc2F)cn1` [N-{2-[6-(dimethylamino)pyridin-3-yl]propan-2-yl}-2-fluoro-9-oxo-9,10-dihydroacridine-3-carboxamide], 6.07.
With `CC(C)(NC(=O)c1cc2[nH]c3ccccc3c(=O)c2cc1F)c1cccnc1` [2-fluoro-9-oxo-N-[2-(pyridin-3-yl)propan-2-yl]-9,10-dihydroacridine-3-carboxamide], the pIC50 is 6.38.
`CC(C)(NC(=O)c1cc2[nH]c3ccccc3c(=O)c2cc1F)c1cnc2c(c1)OCCN2` [2-fluoro-9-oxo-N-(2-{2H,3H,4H-pyrido[3,2-b][1,4]oxazin-7-yl}propan-2-yl)-9,10-dihydroacridine-3-carboxamide]: the pIC50 was 6.04.
The compound `Cc1cc(C(C)(C)NC(=O)c2cc3[nH]c4ccccc4c(=O)c3cc2F)cnc1N1CCOCC1` [2-fluoro-N-{2-[5-methyl-6-(morpholin-4-yl)pyridin-3-yl]propan-2-yl}-9-oxo-9,10-dihydroacridine-3-carboxamide] showed a pIC50 of 6.06.
For the compound `CCOC(=O)c1ccc2c(=O)c3ccccc3[nH]c2c1` [ethyl 9-oxo-9,10-dihydroacridine-3-carboxylate], the pIC50 is < 5.00. For the same compound, the pIC50 (read-out: IC50) was 7.23.
Compound `CN(C)c1cc(C(C)(C)NC(=O)c2cc3[nH]c4ccccc4c(=O)c3cc2F)ccn1` [N-{2-[2-(dimethylamino)pyridin-4-yl]propan-2-yl}-2-fluoro-9-oxo-9,10-dihydroacridine-3-carboxamide] had a pIC50 of 6.19.
The same measure, in the same setting: the value for `CC(C)(NC(=O)c1cc2[nH]c3ccccc3c(=O)c2cc1F)c1ccccc1` [2-fluoro-9-oxo-N-(2-phenylpropan-2-yl)-9,10-dihydroacridine-3-carboxamide] was 6.08; that for `CC(C)(C)NC(=O)c1ccc2c(=O)c3ccccc3[nH]c2c1` [N-tert-butyl-9-oxo-9,10-dihydroacridine-3-carboxamide] was 5.48.
Still for that read-out and setting: the value for `Cc1ccc(C(C)(C)NC(=O)c2cc3[nH]c4ccccc4c(=O)c3cc2F)cn1` [2-fluoro-N-[2-(6-methylpyridin-3-yl)propan-2-yl]-9-oxo-9,10-dihydroacridine-3-carboxamide] was 6.12.
The same measure, in the same setting: the value for `CCN1CCN(c2ccc(C(C)(C)NC(=O)c3cc4[nH]c5ccccc5c(=O)c4cc3F)cn2)CC1` [Acridone-Based Inhibitor, 4m] was 6.11.
Compound `CC(C)(NC(=O)c1cc2[nH]c3ccccc3c(=O)c2cc1F)c1cccc(S(C)(=O)=O)c1` [2-fluoro-N-[2-(3-methanesulfonylphenyl)propan-2-yl]-9-oxo-9,10-dihydroacridine-3-carboxamide] showed a pIC50 of 6.24.
Same read-out and setting: the value for `CN(C)CCOc1ccc(C(C)(C)NC(=O)c2cc3[nH]c4ccccc4c(=O)c3cc2F)cc1` [N-(2-{4-[2-(dimethylamino)ethoxy]phenyl}propan-2-yl)-2-fluoro-9-oxo-9,10-dihydroacridine-3-carboxamide] was 6.25; that for `COc1cc(C(C)(C)NC(=O)c2cc3[nH]c4ccccc4c(=O)c3cc2F)cnc1N1CCOCC1` [2-fluoro-N-{2-[5-methoxy-6-(morpholin-4-yl)pyridin-3-yl]propan-2-yl}-9-oxo-9,10-dihydroacridine-3-carboxamide] was 6.09.
In turn, `CC(C)(NC(=O)c1ccc2c(=O)c3ccccc3[nH]c2c1)c1ccccn1` [9-oxo-N-[2-(pyridin-2-yl)propan-2-yl]-9,10-dihydroacridine-3-carboxamide] showed a negative logarithm of the IC50 (pIC50) of 5.66.
On the same count and under the same terms, the result for `CC(C)(NC(=O)c1ccc2c(=O)c3ccccc3[nH]c2c1)c1ccccc1` [9-oxo-N-(2-phenylpropan-2-yl)-9,10-dihydroacridine-3-carboxamide] reads 5.68; that for `CN(C)S(=O)(=O)c1cccc(C(C)(C)NC(=O)c2cc3[nH]c4ccccc4c(=O)c3cc2F)c1` [N-{2-[3-(dimethylsulfamoyl)phenyl]propan-2-yl}-2-fluoro-9-oxo-9,10-dihydroacridine-3-carboxamide], 6.42.
Same read-out and setting: the result for `CN(C)S(=O)(=O)c1ccc(C(C)(C)NC(=O)c2cc3[nH]c4ccccc4c(=O)c3cc2F)cc1` [N-{2-[4-(dimethylsulfamoyl)phenyl]propan-2-yl}-2-fluoro-9-oxo-9,10-dihydroacridine-3-carboxamide] reads 6.18; that for `CC(C)(NC(=O)c1ccc2c(=O)c3ccccc3[nH]c2c1)c1ccncc1` [9-oxo-N-[2-(pyridin-4-yl)propan-2-yl]-9,10-dihydroacridine-3-carboxamide], 5.64.
On the same count and under the same terms, the result for `CC(C)(NC(=O)c1cc2[nH]c3ccccc3c(=O)c2cc1F)c1ccc(N2CCOCC2)nc1` [2-fluoro-N-{2-[6-(morpholin-4-yl)pyridin-3-yl]propan-2-yl}-9-oxo-9,10-dihydroacridine-3-carboxamide] reads 6.18.
